Data as given in patent US8877889B2, “Tumor cell-killing peptides” (Industry-Academic Cooperation Foundation, Chosun University, priority 2009, dated 2014).
Entries after “also recorded” stand apart in the source; their conditions may differ. No end group written: not given here.

Tests used:
[1] = Toxicity in peptide-injected mice (histology of skin, liver, kidney; body weight); format: in vivo, Balb/c mice; conditions: for apparent toxic effects in mice: i.v. injected mice; for damage in liver and kidney tissues, microscopic analysis: mice injected seven times every two days; for body weight loss: peptide-injected mice; for cell death in dermis and epidermis regions: peptide-injected tumor-bearing mice, hematoxylin and eosin
From the text: (D) Images (400× magnification) of liver and kidney from normal mice or mice treated with, PBS, TU2:MTD or TU3:MTD peptides seven times every two days were obtained after stained with hematoxylin and eosin.
(D) Images (100× magnification) of dermis and epidermis region of normal skin or adjacent to tumor treated with PBS, TU2:MTD or TU3:MTD peptides were obtained after stained with hematoxylin and eosin.
(§1) We followed the university's institutional guidelines and regulations for animal experiments. Tumors were established in Balb/c mice by subcutaneous injection of CT-26 cells (1.5×10^5 cells) into the mouse as described (14). Tumor volume was calculated as length×width^2×0.5. Tumor cells were grown for 7 to 8 days, and TU2:MTD peptide (385 μg/mouse), TU3:MTD peptide (230 μg/mouse), or PBS was intravenously injected through the tail vein every two days until the mice were sacrificed.

CT-26 cells = assay: Syngeneic animal tumor model; format: in vivo; conditions: Balb/c mice with CT26 tumors; for tumor size (tumor volume) versus PBS: i.v. tail vein every two days, TU2:MTD 385 μg/mouse, TU3:MTD 230 μg/mouse; for cell death of tumor cells, histochemical examination of tumors: i.v., hematoxylin and eosin
Experimental: (§2) (A) CT26 cells were injected subcutaneously into the Balb/c mice. Tumor cells were grown for 7 days, and TU2:MTD peptide (385 μg/mouse) or PBS was intravenously injected through the tail vein (n=10 animals/group) every two days from day 7 to day 19. Tumor volume was calculated as the longest diameter×width2×0.5.
(B) TU3:MTD peptide (230 μg/mouse) or PBS were intravenously injected to the Balb/c mice bearing tumor through the tail vein (n=5 animals/group) every two days from day 8 to day 20. Tumor volume was measured as described above.
(C) Tumors were obtained from the mice treated with PBS, TU2:MTD or TU3:MTD upon sacrificing the mice, and were stained with hematoxylin and eosin. Images (400× magnification) at tumor regions were obtained (left), and the boxed region were enlarged (right).
as §2, with “(B)” for “(A)”, “weights were measured after mice were sacrificed.” for “volume was calculated as the longest diameter×width2×0.5.”
(C) TU3:MTD peptide (230 μg/mouse) or PBS were intravenously injected to the Balb/c mice bearing tumor through the tail vein (n=5 animals/group) every two days from day 8 to day 20. Tumor weights were measured as described above.
as §1

[2] = test system: CT26 mouse colon carcinoma cells; assay: Tumor cell killing activity, bright field images; format: cell-based; conditions: 10 μM peptide (FIG. 9A)
Experimental: (A) CT26 cells were treated with 10 μM MTD, TU1:MTD, TU2:MTD, or TU3:MTD peptides, and bright field images for indicated peptides were obtained at indicated time points. Representative images of at least 3 individual experiments were presented.

HeLa cells [3] = assay: Cell death assayed by cell counting kit-8, with or without caspase inhibitor pre-treatment; format: cell-based; conditions: 5 μM peptide for 5 hours (FIG. 2C)
Experimental: (C) HeLa cells were pre-treated with zVAD-fmk (25 μM) or IDN-6556 (25 μM) 1 hour before MTD-peptide treatment. After treatment of 5 μM of R8, ΔR8-MTD, and R8:MTD peptides for 5 hours, cell death was assayed by cell counting kit-8 (Dojindo Molecular Technologies, Rockville, USA).

NCI-H460 cells = assay: Peptide-induced cell death in NCI-H460 cells; format: cell-based; conditions: 5 μM, 2 or 5 hours (FIG. 3C)
Experimental: (C) NCI-H460 cells were treated with indicated peptides for 2 hours or 5 hours. % cell death was determined as described above.

HeLa cells [4] = assay: Peptide-induced cell death, counting dead and survived cells under the light microscope; format: cell-based; conditions: peptides 10 μM, 20 μM, 30 μM, 10 minutes after treatment (FIG. 1B, 3A)
Experimental: (B) HeLa cells were treated with DMSO or the indicated peptides in increasing doses (10 μM, 20 μM, and 30 μM). % of cell death was determined at 10 minutes after treatment by counting the dead cells and survived cells under the light microscope.
(E) HeLa cells were transfected with substitution mutants of MTD peptide.
HeLa cells were treated with DMSO or with the indicated peptides at increasing doses (10 μM, 20 μM, or 30 μM). % cell death was determined 10 minutes after treatment by counting the dead cells and survived cells (300 cells per sample) under the light microscope.
(D) HeLa cells were treated with indicated amounts of MTD peptide for 1 hour, 2 hours, or 5 hours. % cell death was calculated by counting the dead cells and survived cells (200 to 500 cells per sample) under the light microscope. Data represent the means±SD of three independent experiments.

HeLa cells [5] = assay: Measurement of intracellular calcium with Fluo-4-AM; format: cell-based; conditions: 3 μM peptide
Experimental: (A-C) HeLa cells were loaded with 3 μM Fluo-4-AM for 30 minutes and then treated with 3 μM of indicated peptides (A: MTD, B: MTDmt3, C: MTDmt5). Fluorescence images and bright-field images were obtained with the laser scanning confocal microscope at 5-second intervals for 5 minutes. Relative fluorescence intensities (F/F0) at two region-of-interests (ROI 1 and 2) were measured at 5-second intervals for 5 minutes.
(E-G) HeLa cells were pretreated in calcium free KRB media alone (E), in KRB media with 10 μM 2-APB and 20 μM Ryanodine (F), or in KRB media with freshly made 30 μM CsA (G) for 2 hours. HeLa cells were then loaded with 3 μM Fluo-4-AM for 30 minutes and treated with 3 μM of MTD peptide. Images were obtained with the laser scanning confocal microscope at 5-second intervals for 5 minutes. Relative fluorescence intensities (F/F0) at two region-of-interests (ROI 1 and 2) were measured at 5-second intervals for 5 minutes.
For Ca^2+ measurements in the cytosol, HeLa cells were cultured in an Lab-Tek™ Chamber glass slide and loaded with Fluo-4-AM (Fluo-4-acetoxymethyl ester) at a final concentration of 3 μM for 30 minutes, followed by washing with PBS (Phosphate buffered saline) at pH 7.4 and the addition of fresh Ca^2+-free Krebs-ringer modified buffer (KRB: 125 mM NaCl, 5 mM KCl, 1 mM Na3PO4, 1 mM MgSO4, 5.5 mM glucose, and 20 mM HEPES, pH 7.4, at 37° C.) containing the indicated peptides. Time-lapse images were obtained at 488 nm excitation with the Argon laser scanning confocal microscope (Leica TCS SP5 Microsystems, Mannheim, Germany) at 10-second intervals for 5 minutes to visualize Fluo-4-AM.

HeLa cells [6] = assay: Caspase activation, western blot of cell lysates; format: cell-based; conditions: 5 μM peptide
Experimental: (E) After treatment with the MTD peptide, MTDmt4, or MTDmt5 (5 μM) in HeLa cells, cell lysates were prepared at indicated times. Equal amounts of proteins were subjected to the SDS-PAGE and blotted onto PVDF membrane. After blocked with 5% nonfat milk in TBST (10 mM Tris-HCl, pH 7.5, 100 mM NaCl and 0.1% Tween-20), the membrane was probed with anti-caspase-3 (SantaCruz Biotechnology, Inc., Santa Cruz, Calif., USA), anti-caspase-8 (Cell signaling technology, Beverly, Mass., USA), anti-caspase-9 (SantaCruz Biotechnology, Inc., Santa Cruz, Calif.), anti-XIAP (Upstate Biotechnology, Dundee, United Kingdom), or anti-Bid (home-made) antibodies. Anti-actin antibody (Chemicon International, Inc., Temecula, Calif., USA) was used as equal loading control.

[7] = test system: Isolated mouse liver mitochondria; assay: Isolated mitochondria treated with peptide, transmission electron microscopy; conditions: 10 μM peptide; 1 hour at 30° C.
Experimental: (D) Isolated mouse liver mitochondria were treated with buffer (NT), MTD peptide (10 μM), or MTDmt5 peptide (10 μM), and then incubated for 1 hour at 30° C. Mitochondria were harvested by centrifugation (10,000×rpm) and then processed for transmission electron microscopy. Images (upper panel) were obtained with 7,000× magnification, and the relative mitochondrial sizes (lower panel) were calculated by measuring the diameters of about 40 individual mitochondria.
Jurkat cells or isolated mitochondria treated with MTD peptides were harvested by centrifugation and fixed with 2.5% glutaraldehyde for 2 hours followed by washing with 0.2 M sodium cacodylate buffer (pH 7.2) three times for 10-20 minutes. Fixation step was repeated overnight and washed with 0.2 M sodium cacodylate buffer three times. Samples were dehydrated with following sequential solutions 60% ethanol, 70% ethanol, 80% ethanol, 90% ethanol, 95% ethanol, and 100% ethanol twice for 20 minutes at 4° C., and then infiltrated by propylene oxide three times for 20 minutes. Samples were embedded with the mixture of propylene oxide and epon for 6 hours. Electron microscopic images were obtained using the Hitachi H-7600 electron microscope (80 kV, Hitachi, Tokyo, Japan). Mitochondria were isolated from mouse liver as previously described (1).

HeLa cells [8] = assay: Cell death after transfection of Noxa constructs, counting EGFP-positive dead cells; format: cell-based
Experimental: (D) HeLa cells were transfected with deletion mutants of Noxa. At 11 hrs, 24 hrs, and 36 hrs after transfection, cell death was determined by counting EGFP-positive dead cells with morphological changes using the fluorescent microscope.
(B) HeLa cells were transfected with WT or with the indicated Noxa mutants. 20 hours after transfection cell death was determined by counting the EGFP-positive dead and survived cells under the fluorescent microscope.
(A) HeLa cells were transfected with either WT Noxa, 4Lmt (L42A, L43A, L45A, L49A), or 5Lmt (L29A, L42A, L43A, L45A, L49A) constructs. At the indicated times after transfection, cell death was determined by counting the EGFP-positive dead cells with morphological changes under the fluorescent microscope.
HeLa cells were transfected with EGFP-Noxa WT and 41-54 in combination with Bcl-2 expression plasmid or in the presence of zVAD-fmk (25 μM). 18 hours after transfection, cell death was determined by counting EGFP-positive dead cells with morphological changes using the fluorescent microscope. Data represent an average±SD of three experiments each with 200 total cells counted.
The percentage of cell death was determined by counting EGFP-positive dead cells with morphology using the fluorescent microscope. Minimally, 300 cells in three separate fields were counted for each measurement.

HeLa cells [9] = assay: Cytochrome c release by immunofluorescence; format: cell-based; conditions: HeLa cells transfected; 2 days in the presence of zVAD-fmk
Experimental: (B) Plasmids (control vector or Noxa WT fused to GFP) were transfected into HeLa cells. After 2 days in the presence of zVAD-fmk, cytochrome c was stained with anti-cytochrome c antibody. Arrows indicate the diffused cytochrome c staining (upper panel). The release of cytochrome c was analyzed by immunofluorescence in HeLa cells after treatment with MTD peptides (5 μM) (lower panel).

| Substance | apparent toxic effects in mice [1] | damage in liver and kidney tissues, microscopic analysis [1] | body weight loss [1] | cell death in dermis and epidermis regions [1] | tumor size (tumor volume) versus PBS (CT-26 cells) | cell death of tumor cells, histochemical examination of tumors (CT-26 cells) | tumor cell killing activity [2] | also measured |
| --- | --- | --- | --- | --- | --- | --- | --- | --- |
| CGNKRTRGCGGKLLNLISKLF (TU3-MTD fusion peptide derived from Homo sapiens) [TU3:MTD] | do not show apparent toxic effects | no damages in liver and kidney tissues | no body weight loss | no or little cell death | significantly smaller tumors | massive cell death of tumor cells | comparable killing activities to MTD peptide |  |
| CNGRCVSGCAGRCGGKLLNLISKLF (TU2-MTD fusion peptide derived from Homo sapiens) [TU2:MTD] | do not show apparent toxic effects | no damages in liver and kidney tissues | no body weight loss | no or little cell death | significantly smaller tumors | massive cell death of tumor cells | comparable killing activities to MTD peptide |  |
| KLLNLISKLF [ΔR8:MTD] |  |  |  |  |  |  |  | cell death (HeLa cells [3]): could not cause cell death; also recorded: no cell death-inducing activity |
| RRRRRRRRGRQKLLNLISKAA (PTD-MTDmt5 fusion peptide derived from Homo sapiens) |  |  |  |  |  |  |  | susceptibility of cells to peptide (NCI-H460 cells): not; cell death-inducing activity (% of cell death) (HeLa cells [4]): no killing activity; also recorded: completely lost their cell death-inducing activities; also recorded: no cell death; cytosolic calcium level change (HeLa cells [5]): did not induce changes in the cytosolic calcium level; caspase activation (HeLa cells [6]): not activated; morphological changes or mitochondrial size changes of isolated mitochondria [7]: did not show any morphological changes or mitochondrial size changes |
| WT Noxa: wild type Noxa (1-54) expressed from pEGFP-Noxa by transfection (MPGKKARKNAQPSPARAPAELEVECATQLRRFGDKLNFRQKLLNLISKLFCSGT; cysteine pairing not given here; also: EGFP fusion (pEGFP-Noxa); UniProt Q13794 1-54, looked up) |  |  |  |  |  |  |  | cell death (HeLa cells [8]; HeLa cells transfected (FIG. 8A)): more than 60%; cell death after over-expression (HeLa cells [8]; HeLa cells, within 11 hrs after transfection (FIG. 1D)): induced cell death within 11 hrs; inhibition of transfection-induced cell death by zVAD-fmk (HeLa cells [8]; HeLa cells, zVAD-fmk 25 μM, 18 hours after transfection (FIG. 10)): significantly inhibited by zVAD-fmk; cytochrome c release from mitochondria (HeLa cells [9]): able to release the cytochrome c from mitochondria |
